“Also recorded” adds a separate entry of the source. Read-outs that look alike come from different tables or passages of the source.
Assays:
[1] = molecular target: T1, OsD14 (Oryza sativa subsp. japonica, UniProt Q10QA5); assay: YLG (Yoshimulactone Green) competitive hydrolysis assay; format: biochemical, rice
T1 construct: made in house; host or cells: E. coli BL21 (DE3)
T1 sequence (Q10QA5 1-318): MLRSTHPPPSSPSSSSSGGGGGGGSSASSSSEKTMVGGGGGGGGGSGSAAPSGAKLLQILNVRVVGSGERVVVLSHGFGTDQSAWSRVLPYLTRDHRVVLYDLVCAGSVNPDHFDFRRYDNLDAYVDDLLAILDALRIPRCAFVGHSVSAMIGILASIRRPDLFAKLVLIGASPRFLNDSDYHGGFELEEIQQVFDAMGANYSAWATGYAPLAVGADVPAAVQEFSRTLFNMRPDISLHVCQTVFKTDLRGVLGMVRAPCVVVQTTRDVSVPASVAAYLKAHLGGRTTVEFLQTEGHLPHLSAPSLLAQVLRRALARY
Text: (§1) Striga hermonthica ShHTL7 cDNA, GenBank accession KR013127 was kindly provided by Prof. Tadao Asami (The University of Tokyo, Japan). Arabidopsis thaliana D14 (AtD14) cDNA, GenBank accession AY097402 was synthesized and cloned into pUC57 (GenScript). ShHTL7 and OsD14 cDNAs were amplified by RT-PCR using the primers shown in Table 2, digested with BamHI and XhoI, and ligated into BamHI/XhoI digested pGEX-6P-1 expression vector (GE Healthcare). Integrity of plasmids was confirmed by sequencing (KAUST Bioscience Core Lab). The plasmids were then transformed into E. coli BL21 (DE3) cells. The cells were grown in LB broth containing ampicillin ([…]), incubated at 37° C. until OD600 of 0.6 and induced with 0.1 mM isopropyl-β-D-thiogalactopyranoside (IPTG) at 16° C. for 16 h. Harvested cells were re-suspended in lysis buffer: 50 mM Tris-HCl (pH 8.0), 200 mM NaCl, 0.5% Tween-20 and 2 mM dithiothreitol (DTT). After sonication on ice for 10 mins, the lysate was centrifuged at 25,000 rpm for 30 min at 4° C. Supernatant was allowed to bind to glutathione-sepharose beads (GE Healthcare) for 2 h at 4° C., washed 3 times with buffer (50 mM Tris-HCl (pH 8.0), 200 mM NaCl, 2 mM DTT), and eluted by cleaving GST moiety with PreScission™ Protease (GE Healthcare) at 4° C. overnight. Eluted protein was further purified by gel filtration using HiLoad 16/60 Superdex200 prep grade column (GE Healthcare) on an AKTA prime system (GE Healthcare) in gel filtration buffer (10 mM HEPES pH 7.5, 50 mM KCl and 2 mM DTT). Protein eluted as a sharp single peak and purity was judged by 4-15% SDS-PAGE (Bio-Rad). Purified protein was concentrated using an Amicon 10K filter unit (Merck Millipore) and stored at −80° C. until use. Similar expression and purification protocol was followed for OsD14 protein, except that OsD14 was eluted from Glutathione resins using 0.2 mM reduced Glutathione (Sigma) without cutting GST tag.
In vitro YLG hydrolysis assays were performed as described by Tsuchiya et al., 2015. Hydrolysis assays were carried out using 0.15 μM of recombinant protein OsD14 in a reaction buffer (100 mM PBS buffer, pH 7.3) with 0.1% dimethylsulfoxide (DMSO) at a 300 μl volume on a 96-well black plate (Thermo). For competitive assays, (±) GR24 and (±) MPs at range between 0.03 to 10 μM (or 100 μM) were co-incubated with 0.3 μM of YLG and reacted at 30° C. incubator for 15 min. Fluorescent intensity was measured with excitation at 485 nm and detected at 535 nm. IC50 values were calculated online (http://www.ic50.tk/index.html). Later, values were converted to the existing conditions when treated by 1.0 μM of recombinant proteins.

[2] = molecular target: T2, ShHTL7 (Striga hermonthica, UniProt A0A0M3PNA2); assay: Intrinsic tryptophan fluorescence assay; format: binding; conditions: ShHTL7 10 μM, mean±SE (n=3); read-out: Kd, affinity of ShHTL7
T2 sequence (A0A0M3PNA2 1-271): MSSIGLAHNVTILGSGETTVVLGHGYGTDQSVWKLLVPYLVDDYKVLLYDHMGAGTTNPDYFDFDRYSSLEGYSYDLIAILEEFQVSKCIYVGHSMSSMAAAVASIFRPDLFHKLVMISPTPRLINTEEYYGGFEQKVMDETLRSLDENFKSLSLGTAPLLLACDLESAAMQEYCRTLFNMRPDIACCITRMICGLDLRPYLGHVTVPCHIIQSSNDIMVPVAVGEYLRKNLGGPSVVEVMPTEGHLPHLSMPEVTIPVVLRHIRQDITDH
Text: as §1
ShHTL7 tryptophans were excited at 280 nm and […] emission intensity was measured at 333 nm. ShHTL7 (10 μM) was incubated at various dilutions (0.2, 0.4, 0.8, 1.6, 3.12, 6.25, 12.5, 25 and 50 μM) of GR24 and MPs for 30 minutes at room temperature before measurement. Each concentration point was measured in triplicates. Emitted fluorescence was monitored using spectraMaxi3 (Molecular Devices) plate reader in 96-wells black plates. Changes in tryptophan fluorescence intensity occur due to conformational changes in protein when it is bound to ligand; differences in fluorescence intensity were recorded and analyzed. Data were normalized and dissociation coefficient (Kd) values were calculated by fitting to a binding saturation single-site model with GraphPad (PRISM 6).

[3] = Chemical stability of MPs in aqueous solution, monitored by HPLC; format: physicochemical; conditions: aqueous solution pH 6.8, 21° C., monitored at 24 h intervals up to 3 weeks
Method: Aqueous solutions of MPs (50 μg ml-1; pH 6.8) were incubated at 21° C. in amber HPLC vials. For sample preparation, 50 μl of an acetone solution (1 mg ml-1) was diluted to the final concentration with methanol (425 μl), water (500 μl) and 25 μl of 1-Indanol (1.0 mg ml-1 solution in acetone) as internal standard. […] The column was operated at 35° C. with a flow rate of 0.25 ml per min. Compounds eluted from the column were detected with a Diode array detector. Relative quantity of remaining (non-degraded) product was determined by comparison to the internal standard.

[4] = tested on: Arabidopsis seedlings; assay: Arabidopsis lateral root density and primary root length; format: in vivo; conditions: 1.0 μM, 8 days old seedlings
Method: Sterilized Arabidopsis seeds were sown on half strength MS (with 0.5% sucrose+1% agar, 0.5 g L^−1 MES, pH 5.7) plates supplemented with GR24 or MPs (at 1.0 μM). Plates were stored at 4° C. in darkness for 3 days and then vertically grown at 22° C. in Percival incubator under long day condition (16 h at 22° C./8 h at 16° C. day/night, 60% relative humidity, 4000-5000 LUX white light) for 8 days. For determining the effect on lateral root density and primary root length, at least 30 seedlings were measured using publically available ImageJ software (http://rsbweb.nih.gov/ij/) after scanning roots.

| Compound | IC50 [1] [µM] | Kd [2] [µM] | Stability in comparison to GR24 [3] | Increase of primary root length [4] | Reduction of number of lateral roots / lateral root density [4] | IC50 ([1]; with SE (n=3), read-out: IC50, competitive inhibition of OsD14 mediated YLG hydrolysis) [µM] |
| --- | --- | --- | --- | --- | --- | --- |
| COC(=O)/C(=C/OC1C=C(C)C(=O)O1)c1ccc(Cl)cc1 (centres unmarked) [MP7] | 4.46 ± 0.8 | 1.15 ± 0.31 | more stable than GR24 | more efficient than GR24 | slightly more active than GR24; also recorded: more efficient than GR24 | – |
| COC(=O)/C(=C/OC1C=C(C)C(=O)O1)c1ccc([N+](=O)[O-])cc1 (racemic) [MP1, (E)-methyl 3-(4-methyl-5-oxo-2,5-dihydrofuran-2-yloxy)-2-(4-nitrophenyl)acrylate] | – | 0.72 ± 0.55 | slightly less stable than GR24 | the most active compound; also recorded: more efficient than GR24 | activity higher than that of GR24; also recorded: more efficient than GR24 | 2.41 ± 0.175 |
| COC(=O)/C(=C/OC1C=C(C)C(=O)O1)c1ccccc1 (racemic) [MP3, (E)-methyl 3-(4-methyl-5-oxo-2,5-dihydrofuran-2-yloxy)-2-phenylacrylate] | 10.1 ± 2.94 | 10.1 ± 5.1 | more stable than GR24 | weaker activity than GR24 and MP8 | – | – |

From patent US11903386B2, “Strigolactone analogs and their usage in plant control” (King Abdullah University of Science and Technology, priority 2016, dated 2024)
